Laboratory results reported in ChEMBL document CHEMBL1133880 (Bioorg Med Chem Lett, 2001).
Residues, ends and D or L forms follow the SMILES beside them. *: point of attachment. Octanoyl = CCCCCCCC(=O)*

Experiments:
[1] = biological target: T1, Growth hormone secretagogue receptor type 1 (Homo sapiens, UniProt Q92847); test: Binding affinity towards human Growth hormone secretagogue receptor type 1 using competitive binding assay with radiolabeled [35S]-MK-0677 expressed as IC50
[2] = biological target: T1, Growth hormone secretagogue receptor type 1; test: Functional potency measured as intracellular calcium elevation in Hek-293 cells expressing hGHSR1a; assay type: cell-based, HEK293

T1 sequence (Q92847 whole entry): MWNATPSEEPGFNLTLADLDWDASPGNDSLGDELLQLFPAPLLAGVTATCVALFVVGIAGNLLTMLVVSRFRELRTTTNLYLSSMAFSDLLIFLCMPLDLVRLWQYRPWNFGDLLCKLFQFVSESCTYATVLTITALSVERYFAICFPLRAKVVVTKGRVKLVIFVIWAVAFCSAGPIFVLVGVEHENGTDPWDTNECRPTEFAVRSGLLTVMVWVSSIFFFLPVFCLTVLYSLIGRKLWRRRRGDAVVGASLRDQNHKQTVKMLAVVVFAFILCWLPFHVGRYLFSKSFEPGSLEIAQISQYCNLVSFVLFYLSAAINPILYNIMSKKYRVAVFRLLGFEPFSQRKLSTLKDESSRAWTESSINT

IC50 [1] [nM]	EC50 [2] [nM]	Structure (SMILES)
829	432	CCCCCCCC(=O)OC[C@@H](NC(=O)[C@@H](N)CO)C(=O)N1CCC2(CC1)CN(S(C)(=O)=O)c1ccccc12
8.12	19.6	CCCCCCCC(=O)OC[C@@H](NC(=O)C(C)(C)N)C(=O)N1CCC2(CC1)CN(S(C)(=O)=O)c1ccccc12
209	69.2	CS(=O)(=O)N1CC2(CCN(C(=O)[C@@H](COCc3ccccc3)NC(=O)[C@@H](N)CO)CC2)c2ccccc21
36.2	7.95	CS(=O)(=O)N1CC2(CCN(C(=O)[C@@H](COCc3ccccc3)NC(=O)[C@H](CO)NC(=O)CN)CC2)c2ccccc21
2670	448	CCCCCCCC(=O)OC[C@H](NC(=O)[C@H](CO)NC(=O)CN)C(=O)N1CCC2(CC1)CN(S(C)(=O)=O)c1ccccc12
590	378	CCCCCCCC(=O)OC[C@H](NC(=O)C(C)(C)N)C(=O)N1CCC2(CC1)CN(S(C)(=O)=O)c1ccccc12
128	68.2	CCCCCCCC(=O)OC[C@@H](NC(=O)[C@H](CO)NC(=O)CN)C(=O)N1CCC2(CC1)CN(S(C)(=O)=O)c1ccccc12
889	72	CCCCCCCC(=O)OC[C@H](NC(=O)CN)C(=O)N[C@@H](CO)C(=O)N[C@@H](Cc1ccccc1)C(=O)O (H-GS(Octanoyl)SF-OH)
